The values that follow come from patent US20100247659A1, “PHENYLPHTHALIMIDE ANALOGS FOR TREATING DIABETIC MACULAR EDEMA” (Charlesson, LLC, priority 2007, published 2010).

In test [1] the test system is HUVEC. The test can be described thus: MTT cell proliferation assay, HUVEC. Type of test: cell-based. The note with it: Homo sapiens, 72 h, treated 3 days, read-out: IC50, inhibition of proliferation of HUVEC. The source says: (§1) Cell culture: All cell culture media and supplements were purchased from Cellgro unless otherwise indicated. Human Umbilical Vein Endothelial Cells (HUVEC) were obtained from American Type Culture Collection and grown in the EBM-MV2 medium (Clonetics). Bovine Retinal Endothelial Cells (BREC) and pericytes were isolated according to a modified method as described previously (Wong, et al. Investig. Opthalmol. Vis. Sci. 1987, 28: 1767-1775). Twelve bovine eyes were obtained from a local slaughterhouse (Country Home Meats). The retinas were removed and washed four times in DMEM. Subsequently retinas were homogenized and centrifuged at 400×g for 10 min. The resultant pellet was resuspended in an isolation medium (DMEM with 100 IU/ml penicillin, 100 μg/ml streptomycin and 250 ng/ml amphotericin). Microvessels were trapped on an 85 μm nylon mesh (Locker Wire Weavers LTD) and transferred to a petri dish (Falcon) containing 10 ml of an enzyme cocktail which consisted of 600 μg/ml DNase I (Sigma), 165 μg/ml collagenase (Sigma) and 700 μg/ml Pronase E (EMD) and were incubated at 37° C. for 20 min. The resultant vessel fragments were trapped on a 53 μm nylon mesh (Locker Wire Weavers LTD), washed with the isolation medium and centrifuged at 400×g for 5 min. For selective culture of pericytes, the resultant pellet was resuspended in 10 ml of the pericyte growth medium and transferred into 75-cm^2 plastic tissue culture flasks (BD Biosciences). For selective culture of BRCECs, the resultant pellet was resuspended in 10 ml of the BRCEC growth medium and transferred into 75-cm^2 collagen-coated plastic tissue culture flasks (BD Biosciences). The BRCEC growth medium consisted of DMEM supplemented with 10% human serum, 1% glutamine, 1 mg/ml insulin, 550 μg/ml transferring, 670 ng/ml selenium, 100 IU/ml penicillin, 100 μg/ml streptomycin, 250 ng/ml amphotericin, 90 μg/ml heparin (Sigma) and 15 μg/ml endothelial cell growth supplement (Upstate). Cells were cultured at 37° C. and 5% CO2 with regular medium change every 3 days. Confluence cultures were passaged by detaching the cells with 0.25% trypsin and plated at a split 1:3. […] At passage 2, BRCECs and pericytes were stored in a liquid nitrogen tank for future use.
MTT assay: Cells were seeded at a density of 5×10^4 cells per well in 400 μl of growth medium in triplicate in 24-well plates (Nalge Nunc) or gelatin-coated 24-well plates. Twenty-four hours after seeding, the growth medium was replaced by a medium containing 1% FBS, with or without different concentrations of thalidomide or phenylphthalimide analogs. After the cells were treated for 48-72 h, MTT was added to a final concentration of 0.5 mg of medium per ml and incubated for 4 h at 37° C. in 5% CO2. An equal volume of solubilizer buffer is then added, following the protocol recommended by the manufacturer (Roche Molecular Biochemicals), the cells will be incubated overnight at 37° C. in 5% CO2. The absorbance of the formazen product was measured at a wavelength of 570 nm, with 750 nm as the (subtracted) reference wavelength.
Primary endothelial cells (HUVEC and BRCEC) and pericytes were treated with various concentrations of the compounds for 3 days. Viable cells were quantified using MTT assay and IC50 of each compound was calculated (mean±SD, n=3, FIG. 1). The IC50 values represent the means and SE of 3 independent experiments.
Background: Tetrazolium dyes change colour on reduction, which living cells bring about.

A further test relates to STZ-diabetic rats. The test can be described thus: Retinal vascular leakage in STZ-diabetic rats, intravitreal injection. It is filed as in vivo, rat. Conditions: single intravitreal 1.0 μg/eye (5 μl 0.8 mM), 48 h.
Test [2] relates to HUVEC. The test can be described thus: Endothelial cell migration (invasion) assay. It is filed as cell-based. Conditions: Homo sapiens, VEGF 4 ng/ml, invasion through Matrigel, read-out: IC50, inhibition of HUVEC migration.
Procedure: Cells were allowed to invade for 22±1 hours. Cells were labeled post invasion with Calcein AM (4 μg/ml) and measured by detecting the fluorescence of cells that invaded through the BD Matrigel™ Matrix with an Applied Biosystems CytoFluor® 4000 plate reader at 485 nm excitation and 530 nm emission.
In this assay system, human endothelial cells are allowed to invade and are then labeled with fluorescent dye Calcein AM before quantification on a fluorometer.
In FIG. 2B, cells were seeded at 5×10^4/insert in EBM-2 containing 0.1% BSA in multi-well inserts. The assembled assays were allowed to proceed for 6 hours. The results are expressed as percent inhibition of migration as compared to control (no inhibitor). Data represents the average of 3 experiments, each run in triplicate. The bars represent mean±SD.
A further test deals with BRCEC. The test can be described thus: MTT cell proliferation assay, BRCEC. It is filed as cell-based, bovine. The note with it: Bos taurus, 72 h, treated 3 days, read-out: IC50, inhibition of proliferation of BRCEC.
Source text: as §1
MTT assay: Cells were seeded at a density of 5×10^4 cells per well in 400 μl of growth medium in triplicate in 24-well plates (Nalge Nunc) or gelatin-coated 24-well plates. […] The absorbance of the formazen product was measured at a wavelength of 570 nm, with 750 nm as the (subtracted) reference wavelength.
Primary endothelial cells (HUVEC and BRCEC) and pericytes were treated with various concentrations of the compounds for 3 days. Viable cells were quantified using MTT assay and IC50 of each compound was calculated (mean±SD, n=3, FIG. 1). […]

For test [3], the system named is CAM blood vessel formation induced by VEGF/bFGF. As to the kind of experiment: Chicken chorioallantoic membrane (CAM) assay. It is filed as in vivo. Conditions: 200 ng VEGF-165/bFGF, 48 hr. The procedure: Chicken chorioallantoic membrane (CAM) assay: The fertile Leghorn chicken eggs were incubated in a humidified environment at 37.5° C. for 10 days. […] Anti-angiogenic compounds were then added 8 hr after the VEGF/bFGF at saturation to the same microbial testing disk, and the embryos were incubated for an additional 40 h. CAMs were then removed, quickly fixed with 4% paraformaldehyde in PBS, placed onto Petri dishes, and digitized images taken at 7.5× using a Nikon dissecting microscope and Scion Imaging system. A 1×1-cm grid was then added to the digital CAM images and the average number of vessels within 5-7 grids counted as a measure of vascularity.
CAM assay was used for in vivo anti-angiogenic studies. The fertile leghorn chicken eggs were allowed to incubate in a humidified environment at 37.5° C. for 10 days. […] Anti-angiogenic compounds were then added 8 hours after the VEGF/bFGF at saturation to the same microbial testing disk and embryos allowed to incubate for an additional 40 hours. After 48 hr, CAMs were removed, quickly fixed with 4% paraformaldehyde in PBS, placed onto Petri dishes, and digitized images taken at 7.5× using a Nikon dissecting microscope and Scion Imaging system. A 1×1-cm grid was then added to the digital CAM images and the average number of vessels within 5-7 grids counted as a measure of vascularity.
FIG. 14 is a table comparing the effect of Compound 4 on blood vessel formation. […] Data represent mean±SD of 8-16 samples from 2-3 separate experiments.

Procedure for STZ-diabetic rats: Induction of diabetes by streptozotocin (STZ): BN rats (8 weeks of age) were given a single intraperitoneal injection of fresh made streptozotocin (STZ) (Sigma, 50 mg/kg in 10 mM of citrate buffer, pH 4.5) following an overnight fasting. Control rats received an injection of citrate buffer alone. Blood glucose levels were checked at 24 hours following the last STZ injection and once a week thereafter, and only the animals with glucose levels higher than 350 mg/dl were considered diabetic. Rats with hyperglycemia for 2 weeks were used for these experiments.
Intravitreal injection of compounds: Thalidomide and the phenylphthalimide analogs Compounds 1, 2 and Compound 4 were dissolved in vehicle (BN rat serum) and sterilized by filtration. OIR and STZ-diabetic BN rats received an intravitreal injection of 0.5-2.0 μg/eye of (5 μl/eye, 0.1-0.4 mg/ml in BN rat serum) of thalidomide, Compounds 1, 2 or Compound 4 into the right eye and the equal volume of the BN rat serum into the left eye.
Evans blue dye (Sigma) was dissolved in 0.9% saline (30 mg/ml), sonicated for 5 min and filtered through a 0.45-μm filter (Millipore). The rats were then anesthetized, and Evans blue (30 mg/kg) was injected over 10 s through the femoral vein using a glass capillary under microscopic inspection. Evans blue non-covalently binds to plasma albumin in the blood stream. Immediately after Evans blue infusion, the rats turned visibly blue, confirming their uptake and distribution of the dye. The rats were kept on a warm pad for 2 h to ensure the complete circulation of the dye. Then the chest cavity was opened, and the rats were perfused via the left ventricle with 1% paraformaldehyde in citrate buffer (pH 4.2) which was pre-warmed to 37° C. to prevent vasoconstriction. The perfusion lasted 10 min under the physiological pressure of 120 mmHg, in order to clear the dye from the vessel. Immediately after perfusion, the eyes were enucleated and the retinas were carefully dissected under an operating microscope. Evans blue dye was extracted by incubating each sample in 150 μl of formamide for 18 h at 70° C. The extract was centrifuged (Beckman) at 70,000 rpm (Rotor type: TLA 100.3) for 20 min at 4° C. Absorbance was measured using 100 μl of the supernatant at 620 nm by using Spectrophotometer DU800 (Beckman). The concentration of Evans blue in the extract was calculated from a standard curve of Evans blue in formamide and normalized by the total protein concentration in each sample. Results were expressed in mg of Evans blue per mg of total protein content.
Diabetes was induced by injection of STZ (50 mg/kg, i.v.) into adult BN rats after overnight fasting. Blood glucose levels were monitored at the second day after the injection and once a week thereafter. Rats with glucose levels above 350 mg/dl were considered as diabetic and used for the study. thalidomide, Compounds 1, 2 and 4 were separately injected into the vitreous space (5 μl, 0.8 mM in BN rat serum) of the right eye of STZ-diabetic rats 2 wks after the induction of diabetes. At 48 h after the injection, retinal vascular leakage was measured using the Evans blue-albumin leakage method.
To determine the dose-response relationship of the effect of Compound 4 and thalidomide, the STZ-diabetic rats received an intravitreal injection of Compound 4 and thalidomide with doses of 0.5, 0.75 and 1.0 μg/eye (5 μl/eye of 0.10, 0.15 and 0.20 mg/ml), respectively.

For `Nc1cccc2c1C(=O)N(C1CCC(=O)NC1=O)C2=O` (stereo not drawn) [Actimid], the IC50 in the test on HUVEC [1] is above 100 µM. For the compound `CC(C)c1cccc(C(C)C)c1N1C(=O)c2ccc(O)cc2C1=O` [Compound 1], in the test on STZ-diabetic rats, the “reduction of retinal vascular leakage vs vehicle control” value is listed as 61%. Besides, the IC50 was 1 µM in the test on HUVEC [2], 3.3 µM with HUVEC [1] and 1.94 µM in the test on BRCEC. In the case of `CC(C)c1cccc(C(C)C)c1N1C(=O)c2ccccc2C1=O` [Compound 2, (2,6-diisopropylphenyl)-1H-isoindole-1,3-dione], the values for the IC50 in the test with HUVEC [1] and in the test with BRCEC were 3 µM and 3.56 µM, respectively.

Regarding `Nc1cccc2c1CN(C1CCC(=O)NC1=O)C2=O` (stereo not drawn) [Revimid], the IC50 in the test on HUVEC [1] was above 100 µM. On to `Cc1cc(C)c(/C=C2\C(=O)Nc3ccccc32)[nH]1` [SU5416], for which, in test [3], the “ED50, dose reducing blood vessel number to 50% of VEGF/bFGF alone group” value is recorded as 7.8 μg/embryo.
